Experimental findings from patent US8440641B2, “Phthalocyanine salt formulations” (Case Western Reserve University, priority 2009, dated 2013) are described below.

“And” between values parts separate entries of the source, which are not always exact repeats. Equal values may be shown once.

What all share (assay type): physicochemical
The nature of data set [1]: Chemical stability (air, chromatography). The following applies: air.
Data set [2] is described as follows: Qualitative solubility in representative organic solvents. Conditions: for solubility in CH2Cl2: CH2Cl2, qualitative; for solubility in dimethylformamide / solubility in ethanol / solubility in hexanes / solubility in toluene: qualitative.
Data set [3] in a line: Photofading of phthalocyanines on irradiation with tungsten lamp light. The following applies: toluene ~0.01 mM, 300 W tungsten lamp, 30 cm, room temperature. The procedure: Linolenate Ester of SiPc(OH)2, SiPc(OC(O)(CH2)6(CH2CH═CH)3 CH2CH3]2. A solution of the linolenate ester of SiPc(OH)2 in toluene (˜0.01 mM) in a capped quartz cuvette was irradiated at room temperature with light from a tungsten lamp (300 W) in a projector (Kodak […] III E, Kodak, Japan) with a lamp-to-cuvette separation of 30 cm. The UV-vis absorption of the solution at 684 nm was taken periodically and the percent ester remaining was calculated.
The compounds below Table 7 show phthalocyanines with (a) polyunsaturated ester ligands and (b) with polyunsaturated anions

Data set [4] can be described thus: Quantitative solubility (concentration) in H2O and aqueous dispersants. The text has this: Disperstants are agents added to an aqueous solution to prevent clumping, and include a number of surfactant and surfactant-like molecules. […]
Data set [5] is described as follows: Salt concentration in polar and nonpolar solvents (Table 2). Conditions: for solubility in hexanes and mineral oil: mineral oil (Nujol).

On to “[CH3C(O)C(O)OSiPcOSi(CH3)2(CH2)3NH(CH3)2]^+Cl^− [Compound 29]”, for which, in data set [1], the “time of hydrolysis by air to Pc 4” value is at most 2 h. For the same compound, in data set [2], the “solubility in CH2Cl2” value is “soluble”, the solubility in dimethylformamide entry is on record as “soluble”, the solubility in ethanol result was “soluble” and the solubility in hexanes entry is recorded as “insoluble”. In addition, the solubility in toluene entry in data set [2] is “moderately soluble”.
With “SiPc(OC(O)(CH2)6(CH2CH═CH)2(CH2)4CH3]2 [linoleic ester]”, the “% left” value is reported as 95% in data set [3] (4 hrs irradiation), 95% in data set [3] (12 hrs irradiation) and 94% in data set [3] (20 hrs irradiation).
For the compound `CN(C)CCC[Si](C)(C)O[Si]1(O)n2c3c4ccccc4c2N=C2N=C(N=c4c5ccccc5c(n41)=NC1=NC(=N3)c3ccccc31)c1ccccc12` (stereo not drawn) [Pc 4, HOSiPcOSi(CH3)2(CH2)3N(CH3)2, reference compound], the “Pc 4 conc” value in data set [4] (H2O, no dispersant) was 0.0 μg/mL and 0.0 μM; in data set [4] (aqueous 1,6-hexanediol 7.2 mg/mL (61 mM)), 7.2 μg/mL and 10 μM; in data set [4] (aqueous Dow Corning 193 7.2 mg/mL), 0.29 μg/mL and 0.40 μM; in data set [4] (aqueous potassium poly(ethylene glycol)-4-nonylphenyl-3-sulfopropyl ether 7.2 mg/mL (5.7 mM)), 4.3 μg/mL and 6.0 μM; in data set [4] (aqueous povidone 7.2 mg/mL (0.18 mM)) it was 0.09 μg/mL and 0.12 μM.
Consider `CN(C)CCC[Si](C)(C)O[Si]1(O)n2c3c4ccccc4c2N=C2N=C(N=c4c5ccccc5c(n41)=NC1=NC(=N3)c3ccccc31)c1ccccc12.COC(=O)c1ccccc1C(=O)O` (stereo not drawn) [Compound 10, [HOSiPcOSi(CH3)2(CH2)3NH(CH2)2]^+[2-(CH3OC(O))C6H4C(O)O]^−], for which, in data set [2], the “solubility in CH2Cl2” value is on record as “soluble”, the solubility in dimethylformamide result is given as “soluble”, the solubility in ethanol result is given as “soluble” and the solubility in hexanes entry is on record as “insoluble”. The solubility in toluene entry in data set [2] is “moderately soluble”.
As to “[HOSiPcOSi(CH3)2(CH2)3NH(CH3)2]^+[4-C9H19C6H4-1-(OCH2CH2)˜20O(CH2)3SO3]^− [Compound 18]”, the “solubility in CH2Cl2” value in data set [2] was “soluble”. The solubility in dimethylformamide entry in data set [2] was “soluble”. Further, the solubility in ethanol entry in data set [2] is recorded as “soluble”. Besides, the solubility in hexanes entry in data set [2] is “insoluble”. The solubility in toluene result in data set [2] is listed as “moderately soluble”. For the same compound, the “salt conc in dilute aqueous Tween 80” value in data set [4] (Tween 80 7.2 mg/mL ([…])) came to 874 µM. In addition, the salt conc in data set [4] (aqueous Dow Corning 193 7.2 mg/mL, listed as Pc 245) is 50 μg/mL and 70 μM; in data set [4] (aqueous PEG methyl ether 350 7.2 mg/mL (21 mM), listed as Pc 245) it was 9.3 μg/mL and 13 μM; in data set [4] (aqueous PEG methyl ether 750 7.2 mg/mL (9.6 mM), listed as Pc 245), 0.022 μg/mL and 0.031 μM; in data set [4] (aqueous PEG methyl ether 2000 7.2 mg/mL (3.6 mM), listed as Pc 245), 1.3 μg/mL and 1.8 μM; in data set [4] (aqueous PEG methyl ether 5000 7.2 mg/mL (1.4 mM), listed as Pc 245) it was 3.4 μg/mL and 4.8 μM; in data set [4] (aqueous potassium poly(ethylene glycol)-4-nonylphenyl-3-sulfopropyl ether 7.2 mg/mL (5.0 mM)), 1418 µM. In addition, the salt conc in data set [4] (aqueous potassium poly(ethylene glycol)-4-nonylphenyl-3-sulfopropyl ether 7.2 mg/mL (5.0 mM), listed as Pc 245) is ~1018 μg/mL and ~1418 μM; in data set [4] (aqueous povidone 7.2 mg/mL (0.18 mM), listed as Pc 245), 14 μg/mL and 19 μM.
On to “[HOSiPcOSi(CH3)2(CH2)3NH(CH2)2]^+[C27H29N2O7S2]^− [Compound 14]”, for which, in data set [2], the “solubility in CH2Cl2” value is recorded as “soluble”, the solubility in dimethylformamide entry is “soluble”, the solubility in ethanol result is reported as “soluble” and the solubility in hexanes result is “insoluble”. In addition, the solubility in toluene entry in data set [2] is listed as “moderately soluble”.
With `CCC=CCC=CCC=CCC=CCC=CCC=CCCC(=O)O.CCC=CCC=CCC=CCC=CCC=CCC=CCCC(=O)O.CN(C)CCC[Si](C)(C)O[Si]1(O[Si](C)(C)CCCN(C)C)n2c3c4ccccc4c2N=C2N=C(N=c4c5ccccc5c(n41)=NC1=NC(=N3)c3ccccc31)c1ccccc12` [DHA salt, {SiPc[OSi(CH3)2(CH2)3NH(CH3)2]2}^2+[CH3CH2(CH═CHCH2)6CH2COO^−]2], the figures for the “% left” value in data set [3] (4 hrs irradiation) and in data set [3] (8 hrs irradiation) were 72% and 62%, respectively.
As for “{SiPc[OSi(CH3)2(CH2)3NH(CH3)2]2}^2+[CH3CH2(CH═CHCH2)3(CH2)6COO^−]2 [linolenic salt]”, the “% left” value worked out at 79% in data set [3] (12 hrs irradiation) and 73% in data set [3] (20 hrs irradiation).
With “H(OCH2CH2)˜9OC(O)(CH2)2C(O)OH [Compound 19]”, in data set [2], the “solubility in CH2Cl2” value is “soluble”, the solubility in dimethylformamide result was “soluble”, the solubility in ethanol entry is reported as “soluble” and the solubility in hexanes entry is “insoluble”. For the same compound, the solubility in toluene entry in data set [2] was “moderately soluble”.
In the case of “[HOSiPcOSi(CH3)2(CH2)3NH(CH3)2]^+[CH3(OCH2CH2)˜45OC(O)(CH2)2C(O)O]^− [Compound 24]”, in data set [2], the “solubility in CH2Cl2” value is recorded as “soluble”, the solubility in dimethylformamide result is “soluble”, the solubility in ethanol result is reported as “soluble” and the solubility in hexanes result is reported as “insoluble”. Moreover, in data set [2], the solubility in toluene entry is given as “moderately soluble”.
With `CN(C)CCC[Si](C)(C)O[Si]1(O)n2c3c4ccccc4c2N=C2N=C(N=c4c5ccccc5c(n41)=NC1=NC(=N3)c3ccccc31)c1ccccc12.CS(=O)(=O)O` (stereo not drawn) [Compound 26, [HOSiPcOSi(CH3)2(CH2)3NH(CH3)2]^+[CH3SO3]^−], in data set [5], the “salt concentration, […] aqueous Tween 80” value is given as 0.262 mM; the “salt concentration, hexanes” value is recorded as 0.002 mM; the “salt concentration, mineral oil” value turned out to be 0.002 mM. Also, in data set [5] (in words), the “solubility in aqueous solution” value was “show solubility”; the “solubility in hexanes and mineral oil” value is “little”.
On to `CN(C)CCC[Si](C)(C)O[Si]1(O)n2c3c4ccccc4c2N=C2N=C(N=c4c5ccccc5c(n41)=NC1=NC(=N3)c3ccccc31)c1ccccc12.CP(C)(=O)O` (stereo not drawn) [Compound 13, [HOSiPcOSi(CH3)2(CH2)3NH(CH2)2]^+[(CH3)2P(O)O]^−], for which, in data set [2], the “solubility in CH2Cl2” value was “soluble”, the solubility in dimethylformamide entry is “soluble”, the solubility in ethanol result is on record as “soluble” and the solubility in hexanes result is listed as “insoluble”. For the same compound, the solubility in toluene entry in data set [2] is “moderately soluble”.
As to `CN(C)CCC[Si](C)(C)O[Si]1(O)n2c3c4ccccc4c2N=C2N=C(N=c4c5ccccc5c(n41)=NC1=NC(=N3)c3ccccc31)c1ccccc12.O=C(O)CCC(=O)OCCOCCOCCOCCOCCOCCOCCOCCOCCO` (stereo not drawn) [Compound 20, [HOSiPcOSi(CH3)2(CH2)3NH(CH3)2]^+[H(OCH2CH2)9OC(O)(CH2)2C(O)O]^−], in data set [2], the “solubility in CH2Cl2” value is reported as “soluble”, the solubility in dimethylformamide result was “soluble”, the solubility in ethanol entry is reported as “soluble” and the solubility in hexanes result is recorded as “insoluble”. The solubility in toluene result in data set [2] is on record as “moderately soluble”.
For “4-C9H19C6H4-1-(OCH2CH2)˜20O(CH2)3SO3H [Compound 17]”, in data set [2], the “solubility in CH2Cl2” value was “soluble”, the solubility in dimethylformamide result was “soluble”, the solubility in ethanol result is “soluble” and the solubility in hexanes entry was “insoluble”. Besides, the solubility in toluene entry in data set [2] is “moderately soluble”.
As for “CH3(OCH2CH2)˜45OC(O)(CH2)2C(O)OH [Compound 23]”, in data set [2], the “solubility in CH2Cl2” value was “soluble”, the solubility in dimethylformamide entry is reported as “soluble”, the solubility in ethanol result is recorded as “soluble” and the solubility in hexanes result is “insoluble”. In addition, the solubility in toluene result in data set [2] was “moderately soluble”.
In the case of “[HOSiPcOSi(CH3)2(CH2)3NH(CH3)2]^+[H(OCH2CH2)˜76O(O)C(CH2)2C(O)O]^− [Compound 22]”, in data set [2], the “solubility in CH2Cl2” value is “soluble”, the solubility in dimethylformamide result was “soluble”, the solubility in ethanol result is reported as “soluble” and the solubility in hexanes result is “insoluble”. Moreover, the solubility in toluene entry in data set [2] is reported as “moderately soluble”.
For the compound SiPc[OC(O)(CH2)17]2 [stearic ester], in data set [3] (20 hrs irradiation), the “% left” value is 100%.
In the case of “H(OCH2CH2)˜76OOC(CH2)2COOH [Compound 21]”, in data set [2], the “solubility in CH2Cl2” value was “soluble”, the solubility in dimethylformamide result is “soluble”, the solubility in ethanol entry is given as “soluble” and the solubility in hexanes entry is recorded as “insoluble”. Besides, the solubility in toluene result in data set [2] is “moderately soluble”.
Consider “[HOSiPcOSi(CH3)2(CH2)3NH(CH2)2]^+[C33H53O5]^− [Compound 11]”, for which, in data set [2], the “solubility in CH2Cl2” value is listed as “soluble”, the solubility in dimethylformamide entry is “soluble”, the solubility in ethanol result is given as “soluble” and the solubility in hexanes result is “slightly soluble”. For the same compound, the solubility in toluene entry in data set [2] was “moderately soluble”. Moreover, in data set [5], the “salt concentration, […] aqueous Tween 80” value stood at 0.004 mM; the “salt concentration, hexanes” value came out at 0.065 mM; the “salt concentration, mineral oil” value is 0.029 mM. In data set [5] (in words), the “solubility in aqueous solution” value is on record as “only slight solubility”; the “solubility in hexanes and mineral oil” value was “significant solubility”. Besides, in data set [5] (petrolatum (Vaseline), in words), the solubility in petrolatum result is recorded as “significant solubility”.
